Reference: patent US9809861B2, “Method of evaluating inhibitory effect on damp-dry malodor” (Kao Corporation, priority 2012, dated 2017)

Columns and labels:
Δ9desaturase gene = assay: Change in expression amount of Δ9desaturase gene in the presence of test substance (real time PCR); format: cell-based, Moraxella sp. KMC4-1; settings: Substance (1) 10 ppm, (2)(3)(5)(6) 100 ppm, (4) 500 ppm
Protocol: (§1) The substances (1) to (7) described below each were added to 4 mL SCD liquid medium (manufactured by NIHON PHARMACEUTICAL CO., LTD). As a control, a medium system not added with any test substance was also prepared. To these medium, one platinum loop of precultured Moraxella sp. KMC4-1 was inoculated and cultured for 24 hours at 35 C while shaking (160 rpm).
(§2) To the cell liquid cultured for 24 hours, 10 mg of 16-methyloctadecanoic acid was added as a sebaceous dirt component. After culturing again for 6 hours at 35° C., the cells were collected. As a control, a system not added with a sebaceous dirt component was also cultured and cells were collected therefrom.
(§3) An RNA sample was prepared from the collected cells in the same manner as in the test example 1.
By mixing 2 μL solution of the prepared template diluted ×20 with distilled sterile water, 12.5 μL of TaKaRa SYBR Premix EX Taq (trade name, manufactured by Takara Bio Inc.), 0.5 μL of the primer (des_F1, […]) containing the oligonucleotide having the base sequence set forth in SEQ ID NO: 13, 0.5 μL of the primer (des_R1, […]) containing the oligonucleotide having the base sequence set forth in SEQ ID NO: 14 and 9.5 μL of distilled sterile water, 25 μL reaction solution for real time PCR was prepared.
(§4) Reaction solutions for real time PCR were prepared in the same manner as above, except that, instead of the primer set including the primer containing the oligonucleotide having the base sequence set forth in SEQ ID NO: 13 and the primer containing the oligonucleotide having the base sequence set forth in SEQ ID NO: 14, the primer set described in Tables 11 to 13 was used.
(§5) The reaction solutions for real time PCR each were subjected to a gene amplification by using an automatic gene amplification thermal cycler DICE Real time system II (manufactured by Takara Bio Inc.), and then the expression amount of each of the fatty acid desaturase gene (the Δ9desaturase gene) and the β oxidation-relating enzyme genes (the fadB gene and the fadD gene) was measured. PCR reaction conditions were 40 cycles of (i) a thermal denaturation reaction at 95° C. for 20 seconds, and (ii) an annealing reaction and an elongation reaction at 60° C. for 30 seconds.
(§6) By having the gene expression of 16S rRNA as an internal standard, and having the gene expression amount when adding no sebaceous dirt component and no test substance as a reference value, change in expression amount of each gene was calculated relative to the reference value. A sample, in which the expression amount of the gene was ½ times or less the reference value, was rated as “A”; a sample, in which the expression amount of the gene was more than ½ times and ⅔ times or less the reference value, was rated as “B”; and a sample, in which the expression amount of the gene was more than ⅔ times the reference value, was rated as “C”.

fadB gene = assay: Change in expression amount of fadB gene in the presence of test substance (real time PCR); format: cell-based, Moraxella sp. KMC4-1; settings: for Change in the expression amount of fadB gene: Substance (1) 10 ppm, (2)(3)(5)(6) 100 ppm, (4) 500 ppm; for expression amount of the fadB gene by the microorganisms: summary of Table 12
Protocol: as §1, §2, §3, §4, §5, §6

fadD gene = assay: Change in expression amount of fadD gene in the presence of test substance (real time PCR); format: cell-based, Moraxella sp. KMC4-1; settings: for Change in the expression amount of fadD gene: Substance (1) 10 ppm, (2)(3)(5)(6) 100 ppm, (4) 500 ppm
Protocol: as §1, §2, §3, §4, §5, §6

Moraxella sp. KMC4-1 = assay: Sensory evaluation of inhibitory effect on damp-dry malodor on model examination cloth; format: cell-based; settings: summary of Table 14
Protocol: Subsequently, by using Moraxella sp. KMC4-1, which is one kind of the microorganisms which produce damp-dry malodor-causing substances, sensory evaluation of the inhibitory effect on damp-dry malodor by the test substance and measurement of production amount of 4M3H as one kind of the damp-dry malodor-causing substances were carried out.
Moraxella sp. KMC4-1 was inoculated as a test microbe onto SCD-LP agar medium (manufactured by Wako Pure Chemical Industries, Ltd.) and cultured for 1 to 2 weeks at room temperature to give a pre-culture plate. Colony surface was scraped off from the pre-culture plate, suspended in 5 mL of physiological saline, and OD600 was adjusted to 1.0 (about 10^8 CFU/mL).
A cotton jersey cloth obtained in a constant state after sterilization and drying at 25° C., 40% RH (cotton jersey manufactured by Shikisensha Colo., LTD., without silket finish) was cut to a square of 2 cm×2 cm. To the cloth, a solution prepared by dissolving 0.5 mg of 14-methylhexadecanoic acid, as a sebaceous dirt component, in 0.1 mL methanol, was applied. Then, methanol was dried to solid, to give a model examination cloth.
Methanol solution was prepared for each test substance and applied at 20° C. on the model examination cloth such that applied amount of each test substance was […] per gram of the model examination cloth. It was then dried for 2 hours at room temperature to dry methanol. Thereafter, 0.1 mL of the microbe suspension was coated onto the model examination cloth, and cultured for 24 hours in a petri dish using an incubator at 37° C. with relative humidity of 70%, to obtain a microbe-fixed cloth.
The sensory test of the model examination cloth was evaluated by a professional panel who can distinguish different subjects based on the damp-dry malodor. A sample, in which an inhibitory effect on damp-dry malodor was confirmed, was rated as “A”; a sample, in which it was difficult to determine the inhibitory effect on damp-dry malodor or a Weak inhibitory effect on damp-dry malodor was confirmed, was rated as “B; and a sample, in which no inhibitory effect on damp-dry malodor was confirmed, was rated as “C”.

[1] = primers SEQ ID NO: 13 / 14, 16-methyloctadecanoic acid added, relative to reference without sebaceous dirt component and test substance

Structure (SMILES) | Change in the expression amount of Δ9desaturase gene (Δ9desaturase gene; [1]) | Change in the expression amount of Δ9desaturase gene (Δ9desaturase gene; primers SEQ ID NO: 15 / 16) | Change in the expression amount of Δ9desaturase gene (Δ9desaturase gene; primers SEQ ID NO: 17 / 18) | Change in the expression amount of Δ9desaturase gene (Δ9desaturase gene; primers SEQ ID NO: 19 / 20) | Change in the expression amount of Δ9desaturase gene (Δ9desaturase gene; primers SEQ ID NO: 21 / 22) | Change in the expression amount of Δ9desaturase gene (Δ9desaturase gene; primers SEQ ID NO: 23 / 24) | Change in the expression amount of fadB gene (fadB gene; primers SEQ ID NO: 25 / 26) | Change in the expression amount of fadB gene (fadB gene; primers SEQ ID NO: 27 / 28) | Change in the expression amount of fadB gene (fadB gene; primers SEQ ID NO: 29 / 30) | Change in the expression amount of fadB gene (fadB gene; primers SEQ ID NO: 31 / 32) | expression amount of the fadB gene by the microorganisms (fadB gene) | Change in the expression amount of fadD gene (fadD gene; primers SEQ ID NO: 35 / 36) | Change in the expression amount of fadD gene (fadD gene; primers SEQ ID NO: 41 / 42) | expression amount of the fadD gene by the microorganisms (fadD gene; summary of Table 13) | inhibitory effect on damp-dry malodor (Moraxella sp. KMC4-1)
CNc1ccccc1C(=O)OC [Substance (3)] | C (the expression amount of the gene was more than ⅔ times the reference value) | C (the expression amount of the gene was more than ⅔ times the reference value) | C (the expression amount of the gene was more than ⅔ times the reference value) | C (the expression amount of the gene was more than ⅔ times the reference value) | C (the expression amount of the gene was more than ⅔ times the reference value) | C (the expression amount of the gene was more than ⅔ times the reference value) | A (the expression amount of the gene was ½ times or less the reference value) | A (the expression amount of the gene was ½ times or less the reference value) | A (the expression amount of the gene was ½ times or less the reference value) | B (the expression amount of the gene was more than ½ times and ⅔ times or less the reference value) | decreased | A (the expression amount of the gene was ½ times or less the reference value) | A (the expression amount of the gene was ½ times or less the reference value) | decreased | an inhibitory effect on damp-dry malodor was observed
CCCCCCCC/C=C\CCCCCCCC(=O)O [Substance (4)] | C (the expression amount of the gene was more than ⅔ times the reference value) | C (the expression amount of the gene was more than ⅔ times the reference value) | C (the expression amount of the gene was more than ⅔ times the reference value) | C (the expression amount of the gene was more than ⅔ times the reference value) | C (the expression amount of the gene was more than ⅔ times the reference value) | C (the expression amount of the gene was more than ⅔ times the reference value) | A (the expression amount of the gene was ½ times or less the reference value) | A (the expression amount of the gene was ½ times or less the reference value) | A (the expression amount of the gene was ½ times or less the reference value) | A (the expression amount of the gene was ½ times or less the reference value) | decreased | C (the expression amount of the gene was more than ⅔ times the reference value) | C (the expression amount of the gene was more than ⅔ times the reference value) |  | an inhibitory effect on damp-dry malodor was observed
